This note sets out measurements from ChEMBL document CHEMBL5726062, “Substituted oxopyridine derivatives” (2019).

As a reminder, the IC50 is the midpoint of a concentration-inhibition curve.

For the test, the target named is Coagulation factor XI (Homo sapiens, UniProt P03951). Put plainly: Measurement of FXIa Inhibition: The factor XIa inhibition of the substances according to the invention is determined using a biochemical test system which utilizes the reaction of a peptidic factor XIa substrate to determine the enzymatic activity of human factor XIa. Here, factor XIa cleaves from the peptic factor XIa substrate the C-terminal aminomethylcoumarin (AMC), the fluorescence of which is measured. The determinations are carried out in microtitre plates.Test substances are dissolved in dimethyl sulphoxide and serially diluted in dimethyl sulphoxide (3000 μM to 0.0078 μM; resulting final concentrations in the test: 50 μM to 0.00013 μM). 1 μl of the diluted substance solutions is placed into each of the wells of white microtitre plates from Greiner (384 wells). 20 μl of assay buffer (50 mM of Tris/HCl pH 7.4; 100 mM of sodium chloride; 5 mM of calcium chloride; 0.1% of bovine serum albumin) and 20 μl of factor XIa from Kordia (0.45 nM in assay buffer) are then added successively. After […] of incubation, the enzyme reaction is started by addition of 20 μl of the factor XIa substrate Boc-Glu(OBzl)-Ala-Arg-AMC dissolved in assay buffer (10 μM in assay buffer) from Bachem, the mixture is incubated at room temperature (22° C.) for 30 min and fluorescence is then measured (excitation: 360 nm, emission: 460 nm). […].
Sequence of Coagulation factor XI (P03951 19-387 limits assumed): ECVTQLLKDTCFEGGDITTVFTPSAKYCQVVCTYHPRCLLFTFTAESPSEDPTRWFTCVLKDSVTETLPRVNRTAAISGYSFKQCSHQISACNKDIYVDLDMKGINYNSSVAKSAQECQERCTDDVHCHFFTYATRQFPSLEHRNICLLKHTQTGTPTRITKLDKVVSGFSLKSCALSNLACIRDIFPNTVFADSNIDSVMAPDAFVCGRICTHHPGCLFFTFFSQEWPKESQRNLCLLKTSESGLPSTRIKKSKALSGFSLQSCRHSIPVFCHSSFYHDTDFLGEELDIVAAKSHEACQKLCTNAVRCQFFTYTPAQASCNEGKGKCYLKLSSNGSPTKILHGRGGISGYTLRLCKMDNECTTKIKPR
Sequence of Coagulation factor XI (P03951 388-625 limits assumed): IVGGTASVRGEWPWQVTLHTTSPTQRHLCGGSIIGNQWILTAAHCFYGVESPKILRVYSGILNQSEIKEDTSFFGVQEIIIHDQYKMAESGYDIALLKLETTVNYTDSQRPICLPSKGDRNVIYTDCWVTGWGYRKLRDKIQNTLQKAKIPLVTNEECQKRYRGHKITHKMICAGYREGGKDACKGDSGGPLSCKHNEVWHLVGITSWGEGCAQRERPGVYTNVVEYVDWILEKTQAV

Turning to `CNC(=O)c1ccc(NC(=O)C(Cc2cnco2)n2cc(OC)c(-c3cc(Cl)ccc3C#N)cc2=O)cn1` (racemic), the concentration for half-maximal inhibition (IC50) is 12 nM.
